Experimental findings from ChEMBL document CHEMBL4732068, “The discovery of novel antitrypanosomal 4-phenyl-6-(pyridin-3-yl)pyrimidines” (Eur J Med Chem, 2021) are described below.

Calls of active or inactive are those of the source. The calls are words filed in the database; no cut-off is given here.

For one series, the target named is Cytochrome P450 2C9 (Homo sapiens, UniProt P11712). Nature of the series: Inhibition of CYP2C9 in human liver microsomes by luminescence based P450-[…] assay. In general terms: Liver microsomes are a subcellular fraction often used to study metabolism.
Series [1] addresses Histone deacetylase 3 (Homo sapiens) (UniProt O15379). Nature of the series: Inhibition of recombinant human HDAC3 by fluorescence based microplate reader analysis.
In series [2] the target is T1, Protein deacetylase HDAC6 (Homo sapiens) (UniProt Q9UBN7).
T1 sequence (whole entry): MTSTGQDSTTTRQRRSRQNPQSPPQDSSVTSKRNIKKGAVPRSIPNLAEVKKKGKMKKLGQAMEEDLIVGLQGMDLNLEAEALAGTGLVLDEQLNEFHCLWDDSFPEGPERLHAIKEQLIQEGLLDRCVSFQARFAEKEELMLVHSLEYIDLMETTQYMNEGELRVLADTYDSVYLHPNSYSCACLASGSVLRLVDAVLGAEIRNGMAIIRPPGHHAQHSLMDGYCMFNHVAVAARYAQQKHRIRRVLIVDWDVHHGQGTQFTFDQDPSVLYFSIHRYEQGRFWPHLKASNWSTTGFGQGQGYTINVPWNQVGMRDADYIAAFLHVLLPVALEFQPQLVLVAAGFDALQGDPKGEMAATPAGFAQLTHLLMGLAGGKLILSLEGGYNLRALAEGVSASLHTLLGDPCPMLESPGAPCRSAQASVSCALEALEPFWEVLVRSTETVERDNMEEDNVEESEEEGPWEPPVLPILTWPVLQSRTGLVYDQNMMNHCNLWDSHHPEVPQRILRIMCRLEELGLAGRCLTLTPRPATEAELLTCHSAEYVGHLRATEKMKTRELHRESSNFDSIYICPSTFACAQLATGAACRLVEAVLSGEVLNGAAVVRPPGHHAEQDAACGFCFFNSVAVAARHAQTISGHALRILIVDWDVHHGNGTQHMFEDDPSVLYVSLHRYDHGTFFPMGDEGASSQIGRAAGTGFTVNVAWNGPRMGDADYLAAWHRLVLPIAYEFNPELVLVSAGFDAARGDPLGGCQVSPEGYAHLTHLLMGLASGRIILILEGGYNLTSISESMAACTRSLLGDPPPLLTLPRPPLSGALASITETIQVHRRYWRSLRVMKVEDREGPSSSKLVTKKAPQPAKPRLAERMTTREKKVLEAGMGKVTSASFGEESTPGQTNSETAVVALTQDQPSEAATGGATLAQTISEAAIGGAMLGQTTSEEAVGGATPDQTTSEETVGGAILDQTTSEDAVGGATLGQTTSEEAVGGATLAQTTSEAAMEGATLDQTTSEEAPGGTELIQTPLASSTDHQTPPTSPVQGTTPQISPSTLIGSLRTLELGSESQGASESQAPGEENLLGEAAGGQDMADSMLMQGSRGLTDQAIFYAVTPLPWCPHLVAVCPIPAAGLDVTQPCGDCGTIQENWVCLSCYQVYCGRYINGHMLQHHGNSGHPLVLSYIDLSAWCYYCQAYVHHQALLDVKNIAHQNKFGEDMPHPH
The experiment in a line: Inhibition of recombinant human HDAC6 by fluorescence based microplate reader analysis.

The target in another series is T2, Cytochrome P450 1A2 (Homo sapiens, UniProt P05177).
T2 sequence (P05177 whole entry): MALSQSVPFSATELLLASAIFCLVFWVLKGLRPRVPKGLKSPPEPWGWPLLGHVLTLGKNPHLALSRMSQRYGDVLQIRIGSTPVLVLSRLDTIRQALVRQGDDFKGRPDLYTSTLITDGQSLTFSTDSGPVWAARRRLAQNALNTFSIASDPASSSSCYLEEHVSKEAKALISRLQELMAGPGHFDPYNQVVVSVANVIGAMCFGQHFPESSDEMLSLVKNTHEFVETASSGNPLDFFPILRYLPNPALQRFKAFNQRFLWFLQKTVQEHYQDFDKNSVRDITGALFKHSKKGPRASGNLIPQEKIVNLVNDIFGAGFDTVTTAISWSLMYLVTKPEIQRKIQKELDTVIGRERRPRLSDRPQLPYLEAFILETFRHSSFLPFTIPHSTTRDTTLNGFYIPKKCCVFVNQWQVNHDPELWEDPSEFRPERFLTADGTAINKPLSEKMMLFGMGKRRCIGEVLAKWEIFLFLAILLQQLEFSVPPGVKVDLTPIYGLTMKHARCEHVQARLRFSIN
Nature of the series: Inhibition of CYP1A2 in human liver microsomes by luminescence based P450-[…] assay. The format is ADME.

In series [3] the target is Histone deacetylase 1 (Homo sapiens) (UniProt Q13547). The experiment in a line: Inhibition of recombinant human HDAC1 by fluorescence based microplate reader analysis.
The next series deals with Cytochrome P450 2C19 (Homo sapiens, UniProt P33261). The experiment in a line: Inhibition of CYP2C19 in human liver microsomes by luminescence based P450-[…] assay. The format is ADME.
Cytochrome P450 2C19, sequence (P33261 whole entry): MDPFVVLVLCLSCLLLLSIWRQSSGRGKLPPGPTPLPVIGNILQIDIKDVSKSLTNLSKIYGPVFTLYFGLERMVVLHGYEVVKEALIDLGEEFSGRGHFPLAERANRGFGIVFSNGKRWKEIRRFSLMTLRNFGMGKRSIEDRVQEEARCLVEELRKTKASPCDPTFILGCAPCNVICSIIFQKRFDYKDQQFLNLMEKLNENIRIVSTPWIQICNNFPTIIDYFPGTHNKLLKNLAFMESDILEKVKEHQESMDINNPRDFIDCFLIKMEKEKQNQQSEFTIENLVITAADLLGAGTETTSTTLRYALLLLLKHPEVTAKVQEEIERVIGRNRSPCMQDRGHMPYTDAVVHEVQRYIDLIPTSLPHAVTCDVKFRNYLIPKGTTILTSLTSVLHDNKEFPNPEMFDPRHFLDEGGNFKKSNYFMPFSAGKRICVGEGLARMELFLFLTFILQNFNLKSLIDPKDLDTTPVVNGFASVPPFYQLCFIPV

Cytochrome P450 2C9, sequence (P11712 whole entry): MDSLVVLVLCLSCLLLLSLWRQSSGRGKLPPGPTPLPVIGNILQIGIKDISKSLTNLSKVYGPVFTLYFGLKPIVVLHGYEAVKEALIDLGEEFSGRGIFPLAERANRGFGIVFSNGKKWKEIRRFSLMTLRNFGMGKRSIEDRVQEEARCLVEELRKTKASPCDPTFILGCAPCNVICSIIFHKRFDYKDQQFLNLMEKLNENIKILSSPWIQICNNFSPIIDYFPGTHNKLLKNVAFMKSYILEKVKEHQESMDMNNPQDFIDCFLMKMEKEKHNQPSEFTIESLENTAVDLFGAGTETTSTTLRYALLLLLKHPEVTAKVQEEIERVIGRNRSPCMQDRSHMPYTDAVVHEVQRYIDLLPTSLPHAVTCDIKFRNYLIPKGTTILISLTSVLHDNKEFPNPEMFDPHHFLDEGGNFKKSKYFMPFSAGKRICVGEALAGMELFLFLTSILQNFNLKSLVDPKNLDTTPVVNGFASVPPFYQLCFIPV
Histone deacetylase 3 (Homo sapiens), sequence (O15379 whole entry): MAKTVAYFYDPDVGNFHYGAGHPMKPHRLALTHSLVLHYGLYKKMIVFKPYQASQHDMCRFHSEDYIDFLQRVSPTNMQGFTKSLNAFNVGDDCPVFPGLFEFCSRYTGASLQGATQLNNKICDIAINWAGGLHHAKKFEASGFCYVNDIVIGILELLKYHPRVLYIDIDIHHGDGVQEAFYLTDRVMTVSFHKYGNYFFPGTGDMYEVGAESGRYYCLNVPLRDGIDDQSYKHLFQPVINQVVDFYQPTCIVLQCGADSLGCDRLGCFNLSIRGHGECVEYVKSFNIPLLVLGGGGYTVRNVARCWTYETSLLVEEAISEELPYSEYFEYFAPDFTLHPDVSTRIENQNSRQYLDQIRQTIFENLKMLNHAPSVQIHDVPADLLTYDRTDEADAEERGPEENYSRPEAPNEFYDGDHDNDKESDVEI
Histone deacetylase 1 (Homo sapiens), sequence (Q13547 whole entry): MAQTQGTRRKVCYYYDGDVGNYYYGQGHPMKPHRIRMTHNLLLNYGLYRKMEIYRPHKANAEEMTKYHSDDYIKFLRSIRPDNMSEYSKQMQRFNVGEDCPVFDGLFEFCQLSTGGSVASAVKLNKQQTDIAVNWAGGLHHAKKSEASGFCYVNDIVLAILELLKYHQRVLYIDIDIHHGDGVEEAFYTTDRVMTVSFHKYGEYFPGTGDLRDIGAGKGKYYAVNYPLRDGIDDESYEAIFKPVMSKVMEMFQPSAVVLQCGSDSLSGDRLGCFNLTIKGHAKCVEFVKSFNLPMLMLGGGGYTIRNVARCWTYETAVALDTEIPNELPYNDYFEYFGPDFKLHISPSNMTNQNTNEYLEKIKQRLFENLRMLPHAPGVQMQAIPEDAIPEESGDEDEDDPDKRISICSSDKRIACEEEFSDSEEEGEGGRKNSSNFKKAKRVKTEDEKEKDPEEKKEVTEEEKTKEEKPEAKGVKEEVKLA

On to `COc1ccccc1-c1cc(-c2cccnc2)nc(N)n1`, for which the “inhibition (INH)” value at Cytochrome P450 2C9, on Cytochrome P450 1A2 and against Cytochrome P450 2C19 was “Active” throughout. The inhibition result in series [1], in series [2] and in series [3] was “inactive” each time.
